Experiments:
[1] = system: morningglory; test: Test A pre-/postemergence herbicide test; format: in vivo, Ipomoea spp.
Method in brief: (§1)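 Seeds sown in sandy loam received a preemergence directed soil spray of compound in non-phytotoxic solvent with surfactant; postemergence plants (2–10 cm, one- to two-leaf stage) were sprayed to runoff at the same time. After ~10 days in greenhouse, injury was rated visually versus untreated controls (0 = no effect, 100 = complete control).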

[2] = system: yellow nutsedge; test: Test C pre-/postemergence herbicide test; format: in vivo, Cyperus esculentus; conditions: for Nutsedge, Yellow plant response rating: Preemergence, 500 g ai/ha
Method in brief: (§2)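 Seeds were planted and sprayed preemergence with test chemicals in a non-phytotoxic solvent mixture containing surfactant; postemergence treatments went onto plants 2 to 18 cm tall (1- to 4-leaf stage). After 12 to 14 days in a greenhouse, injury was rated visually against untreated controls on a 0–100 scale.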

[3] = system: velvetleaf; test: Test C pre-/postemergence herbicide test; format: in vivo, Abutilon theophrasti; conditions: for Velvetleaf plant response rating: Preemergence, 500 g ai/ha
Method in brief: as §2

[4] = system: common ragweed; test: Test C pre-/postemergence herbicide test; format: in vivo, Ambrosia elatior; parameters: key to Plant response rating, Ragweed: 0 = no effect, 100 = complete control; conditions: for Ragweed plant response rating: Preemergence, 500 g ai/ha
Method in brief: as §2

[5] = system: pigweed; test: Test C pre-/postemergence herbicide test; format: in vivo, Amaranthus retroflexus; conditions: for Pigweed plant response rating: Preemergence, 500 g ai/ha
Method in brief: as §2

[6] = system: giant foxtail; test: Test C pre-/postemergence herbicide test; format: in vivo, Setaria faberi; conditions: for Foxtail, Giant plant response rating: Preemergence, 500 g ai/ha
Method in brief: as §2

[7] = system: giant foxtail; test: Test A pre-/postemergence herbicide test; format: in vivo, Setaria faberi
Method in brief: as §1

[8] = system: soybean; test: Test C pre-/postemergence herbicide test; format: in vivo, Glycine max; conditions: for Soybean plant response rating: Preemergence, 500 g ai/ha
Method in brief: as §2

[9] = system: large crabgrass; test: Test C pre-/postemergence herbicide test; format: in vivo, Digitaria sanguinalis; conditions: for Crabgrass, Large plant response rating: Preemergence, 500 g ai/ha
Method in brief: as §2

[10] = system: goosegrass; test: Test C pre-/postemergence herbicide test; format: in vivo, Eleusine indica; conditions: for Goosegrass plant response rating: Preemergence, 500 g ai/ha
Method in brief: as §2

[11] = system: redroot pigweed; test: Test A pre-/postemergence herbicide test; format: in vivo, Amaranthus retroflexus
Method in brief: as §1

[12] = Postemergence, 500 g ai/ha, 0 to 100 scale, 0 no effect, 100 complete control
[13] = Postemergence, 2000 g ai/ha, 0 to 100 scale, 0 no effect, 100 complete control
[14] = Preemergence, 500 g ai/ha, visual rating, 0 to 100 scale (0 no effect, 100 complete control)
[15] = Preemergence, 2000 g ai/ha, 0 to 100 scale, 0 no effect, 100 complete control
[16] = 31 g ai/ha, preemergence, scale 0 to 100
[17] = 125 g ai/ha, scale 0 (no effect) to 100 (complete control), visual, 12 to 14 days, preemergence
[18] = 250 g ai/ha, scale 0 to 100 (0 no effect, 100 complete control), visual, 12 to 14 days, preemergence
[19] = Postemergence, 250 g ai/ha, scale 0 to 100, 0 no effect, 100 complete control
[20] = postemergence, 125 g ai/ha, scale 0 to 100
[21] = postemergence, 62 g ai/ha, scale 0 to 100
[22] = Preemergence, 2000 g ai/ha, visual rating, 0 to 100 scale (0 no effect, 100 complete control)
[23] = preemergence, 500 g ai/ha, visual injury, 0 to 100 scale (0 no effect, 100 complete control)
[24] = 62 g ai/ha, preemergence, scale 0 to 100
[25] = 250 g ai/ha, scale 0-100, preemergence
[26] = scale 0 to 100, 0 no effect, 100 complete control

SMILES: CCn1nc(C(C)(C)C)cc1C(=O)Nc1ccc(F)c(C(=O)NCCF)c1 [Compound 60]
- Plant response rating, Morningglory [1, 12]: 10
- Plant response rating, Morningglory [1, 13]: 20
- Morningglory plant response rating [1, 14]: 10
- Morningglory plant response rating [1, 15]: 40
- Plant response rating, Nutsedge, Yellow [2, 16]: 0
- Plant response rating (0 = no effect, 100 = complete control), Nutsedge, Yellow ([2]; 62 g ai/ha, preemergence): 0
- Plant response rating, Nutsedge, Yellow [2, 17]: 0
- Plant response rating, Nutsedge, Yellow [2, 18]: 5
- Plant response rating, Nutsedge, Yellow [2, 19]: 0
- Plant response rating, Nutsedge, Yellow [2, 20]: 0
- Plant response rating, Nutsedge, Yellow [2, 21]: 0
- Plant response rating, Velvetleaf [3, 16]: 5
- Plant response rating, Velvetleaf [3, 17]: 70
- Plant response rating, Velvetleaf [3, 18]: 85
- Plant response rating, Velvetleaf [3, 19]: 30
- Plant response rating, Velvetleaf [3, 20]: 20
- Plant response rating, Velvetleaf [3, 21]: 20
- Plant response rating, Ragweed [4, 16]: 0
- Plant response rating (0 = no effect, 100 = complete control), Ragweed ([4]; 62 g ai/ha, preemergence): 10
- Plant response rating, Ragweed [4, 17]: 80
- Plant response rating, Ragweed [4, 18]: 95
- Plant response rating, Ragweed [4, 19]: 5
- Plant response rating, Ragweed [4, 20]: 5
- Plant response rating, Ragweed [4, 21]: 0
- Plant response rating, Pigweed [5, 16]: 100
- Plant response rating (0 = no effect, 100 = complete control), Pigweed ([5]; 62 g ai/ha, preemergence): 100
- Plant response rating, Pigweed [5, 17]: 100
- Plant response rating, Pigweed [5, 18]: 100
- Plant response rating, Pigweed [5, 19]: 60
- Plant response rating, Pigweed [5, 20]: 40
- Plant response rating, Pigweed [5, 21]: 40
- Plant response rating, Foxtail, Giant [6, 16]: 0
- Plant response rating (0 = no effect, 100 = complete control), Foxtail, Giant ([6]; 62 g ai/ha, preemergence): 0
- Plant response rating, Foxtail, Giant [6, 17]: 15
- Plant response rating, Foxtail, Giant [6, 18]: 80
- Plant response rating, Foxtail, Giant [6, 19]: 5
- Plant response rating, Foxtail, Giant [6, 20]: 5
- Plant response rating, Foxtail, Giant [6, 21]: 0
- Plant response rating, Foxtail, Giant [7, 12]: 30
- Plant response rating, Foxtail, Giant [7, 13]: 60
- Foxtail, Giant plant response rating [7, 14]: 55
- Foxtail, Giant plant response rating [7, 15]: 90
- Plant response rating, Soybean [8, 16]: 0
- Plant response rating (0 = no effect, 100 = complete control), Soybean ([8]; 62 g ai/ha, preemergence): 0
- Plant response rating, Soybean [8, 17]: 0
- Plant response rating, Soybean [8, 18]: 0
- Plant response rating, Soybean [8, 19]: 50
- Plant response rating, Soybean [8, 20]: 40
- Plant response rating, Soybean [8, 21]: 20
- Plant response rating, Crabgrass, Large [9, 16]: 80
- Plant response rating (0 = no effect, 100 = complete control), Crabgrass, Large ([9]; 62 g ai/ha, preemergence): 90
- Plant response rating, Crabgrass, Large [9, 17]: 90
- Plant response rating, Crabgrass, Large [9, 18]: 95
- Plant response rating, Crabgrass, Large [9, 19]: 5
- Plant response rating, Crabgrass, Large [9, 20]: 0
- Plant response rating, Crabgrass, Large [9, 21]: 0
- Plant response rating, Goosegrass [10, 16]: 10
- Plant response rating (0 = no effect, 100 = complete control), Goosegrass ([10]; 62 g ai/ha, preemergence): 55
- Plant response rating, Goosegrass [10, 17]: 85
- Plant response rating, Goosegrass [10, 18]: 95
- Plant response rating, Goosegrass [10, 19]: 5
- Plant response rating, Goosegrass [10, 20]: 0
- Plant response rating, Goosegrass [10, 21]: 0
- Plant response rating, Pigweed [11, 12]: 40
- Plant response rating, Pigweed [11, 13]: 95
- Pigweed plant response rating [11, 14]: 95
- Pigweed plant response rating [11, 15]: 100

SMILES: C=CCNC(=O)c1cccc(NC(=O)c2sc(C(C)(C)C)nc2C)c1 [Compound 202]
- Morningglory plant response rating [1, 12]: 75
- Plant response rating, Morningglory [1, 13]: 75
- Morningglory plant response rating [1, 22]: 70
- Morningglory plant response rating [1, 23]: 15
- Plant response rating, Nutsedge, Yellow [2, 24]: 0
- Plant response rating, Nutsedge, Yellow [2, 17]: 0
- Plant response rating, Nutsedge, Yellow [2, 25]: 0
- Nutsedge, Yellow plant response rating [2, 26]: 0
- Plant response rating, Velvetleaf [3, 24]: 5
- Plant response rating, Velvetleaf [3, 17]: 10
- Plant response rating, Velvetleaf [3, 25]: 100
- Velvetleaf plant response rating [3, 26]: 100
- Plant response rating, Ragweed [4, 24]: 0
- Plant response rating, Ragweed [4, 17]: 80
- Plant response rating, Ragweed [4, 25]: 95
- Ragweed plant response rating [4, 26]: 95
- Plant response rating, Pigweed [5, 24]: 95
- Plant response rating, Pigweed [5, 17]: 100
- Plant response rating, Pigweed [5, 25]: 100
- Pigweed plant response rating [5, 26]: 100
- Plant response rating, Foxtail, Giant [6, 24]: 0
- Plant response rating, Foxtail, Giant [6, 17]: 40
- Plant response rating, Foxtail, Giant [6, 25]: 80
- Foxtail, Giant plant response rating [6, 26]: 100
- Foxtail, Giant plant response rating [7, 12]: 30
- Plant response rating, Foxtail, Giant [7, 13]: 50
- Foxtail, Giant plant response rating [7, 22]: 80
- Foxtail, Giant plant response rating [7, 23]: 55
- Plant response rating, Soybean [8, 24]: 0
- Plant response rating, Soybean [8, 17]: 0
- Plant response rating, Soybean [8, 25]: 0
- Soybean plant response rating [8, 26]: 30
- Plant response rating, Crabgrass, Large [9, 24]: 80
- Plant response rating, Crabgrass, Large [9, 17]: 95
- Plant response rating, Crabgrass, Large [9, 25]: 95
- Crabgrass, Large plant response rating [9, 26]: 95
- Plant response rating, Goosegrass [10, 24]: 20
- Plant response rating, Goosegrass [10, 17]: 85
- Plant response rating, Goosegrass [10, 25]: 90
- Goosegrass plant response rating [10, 26]: 95
- Pigweed plant response rating [11, 12]: 50
- Plant response rating, Pigweed [11, 13]: 90
- Pigweed plant response rating [11, 22]: 100
- Pigweed plant response rating [11, 23]: 100

SMILES: CCNC(=O)c1cc(C)nc(NC(=O)c2cc(C(C)(C)C)nn2CC)c1 [Compound 149]
- Morningglory plant response rating [1, 12]: 30
- Plant response rating, Morningglory [1, 13]: 60
- Morningglory plant response rating [1, 14]: 30
- Morningglory plant response rating [1, 22]: 65
- Plant response rating, Nutsedge, Yellow [2, 24]: 0
- Plant response rating, Nutsedge, Yellow [2, 17]: 0
- Nutsedge, Yellow plant response rating [2, 26]: 0
- Plant response rating, Velvetleaf [3, 24]: 0
- Plant response rating, Velvetleaf [3, 17]: 0
- Velvetleaf plant response rating [3, 26]: 60
- Plant response rating, Ragweed [4, 24]: 0
- Plant response rating, Ragweed [4, 17]: 0
- Ragweed plant response rating [4, 26]: 5
- Plant response rating, Pigweed [5, 24]: 20
- Plant response rating, Pigweed [5, 17]: 100
- Pigweed plant response rating [5, 26]: 100
- Plant response rating, Foxtail, Giant [6, 24]: 0
- Plant response rating, Foxtail, Giant [6, 17]: 50
- Plant response rating, Foxtail, Giant [6, 18]: 60
- Foxtail, Giant plant response rating [6, 26]: 100
- Foxtail, Giant plant response rating [7, 12]: 40
- Plant response rating, Foxtail, Giant [7, 13]: 65
- Foxtail, Giant plant response rating [7, 14]: 70
- Foxtail, Giant plant response rating [7, 22]: 100
- Plant response rating, Soybean [8, 24]: 0
- Plant response rating, Soybean [8, 17]: 0
- Soybean plant response rating [8, 26]: 0
- Plant response rating, Crabgrass, Large [9, 24]: 20
- Plant response rating, Crabgrass, Large [9, 17]: 90
- Plant response rating, Crabgrass, Large [9, 18]: 100
- Crabgrass, Large plant response rating [9, 26]: 100
- Plant response rating, Goosegrass [10, 24]: 10
- Plant response rating, Goosegrass [10, 17]: 70
- Goosegrass plant response rating [10, 26]: 90
- Pigweed plant response rating [11, 12]: 65
- Plant response rating, Pigweed [11, 13]: 90
- Pigweed plant response rating [11, 22]: 95
- Pigweed plant response rating [11, 23]: 90
